Measurements: ChEMBL document CHEMBL5584241, “Discovery of new anti-diabetic potential agents based on paracetamol incorporating sulfa-drugs: Design, synthesis, α-amylase, and α-glucosidase inhibitors with molecular docking simulation” (Eur J Med Chem, 2024)

What was measured:
[1] = Inhibition of alpha-glucosidase (unknown origin) using p-nitrophenyl-alpha-D-glucopyranoside as substrate incubated for 15 to 25 mins by spectrophotometric analysis; design: species or system Homo sapiens
[2] = species on record: Homo sapiens; assay: Inhibition of alpha-glucosidase (unknown origin) at 100 ug/ml using p-nitrophenyl-alpha-D-glucopyranoside as substrate incubated for 15 to 25 mins by spectrophotometric analysis relative to control; conditions: dose 100.0 µg/ml, time 15-25 min
[3] = target: T1, Alpha amylase (Homo sapiens, UniProt P0DUB6); assay: Inhibition of alpha-amylase (unknown origin); type: protein assay
T1 sequence (P0DUB6 whole entry): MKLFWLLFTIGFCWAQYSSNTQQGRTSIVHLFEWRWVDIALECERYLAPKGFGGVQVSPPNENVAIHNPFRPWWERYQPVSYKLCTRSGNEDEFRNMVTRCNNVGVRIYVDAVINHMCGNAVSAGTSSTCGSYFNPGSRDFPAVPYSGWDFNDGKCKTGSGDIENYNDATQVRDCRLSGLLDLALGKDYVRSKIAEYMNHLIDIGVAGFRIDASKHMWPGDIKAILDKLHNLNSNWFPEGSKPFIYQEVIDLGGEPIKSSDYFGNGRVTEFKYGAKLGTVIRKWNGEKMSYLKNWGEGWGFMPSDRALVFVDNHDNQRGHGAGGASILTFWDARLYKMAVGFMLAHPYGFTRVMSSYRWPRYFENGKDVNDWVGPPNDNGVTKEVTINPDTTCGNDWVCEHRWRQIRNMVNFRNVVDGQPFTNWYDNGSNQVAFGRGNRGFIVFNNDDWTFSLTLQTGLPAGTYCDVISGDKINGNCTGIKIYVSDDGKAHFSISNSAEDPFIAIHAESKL

[4] = Inhibition of alpha-glucosidase (unknown origin); design: species or system Homo sapiens
[5] = target: Maltase-glucoamylase (Homo sapiens, UniProt O43451); assay: Inhibition of intestinal alpha-glucosidase (unknown origin) using p-nitrophenyl-alpha-D-glucopyranoside as substrate preincubated for 5 mins followed by substrate addition and measured after 5 mins by spectrophotometric analysis
Maltase-glucoamylase, sequence (O43451 whole entry): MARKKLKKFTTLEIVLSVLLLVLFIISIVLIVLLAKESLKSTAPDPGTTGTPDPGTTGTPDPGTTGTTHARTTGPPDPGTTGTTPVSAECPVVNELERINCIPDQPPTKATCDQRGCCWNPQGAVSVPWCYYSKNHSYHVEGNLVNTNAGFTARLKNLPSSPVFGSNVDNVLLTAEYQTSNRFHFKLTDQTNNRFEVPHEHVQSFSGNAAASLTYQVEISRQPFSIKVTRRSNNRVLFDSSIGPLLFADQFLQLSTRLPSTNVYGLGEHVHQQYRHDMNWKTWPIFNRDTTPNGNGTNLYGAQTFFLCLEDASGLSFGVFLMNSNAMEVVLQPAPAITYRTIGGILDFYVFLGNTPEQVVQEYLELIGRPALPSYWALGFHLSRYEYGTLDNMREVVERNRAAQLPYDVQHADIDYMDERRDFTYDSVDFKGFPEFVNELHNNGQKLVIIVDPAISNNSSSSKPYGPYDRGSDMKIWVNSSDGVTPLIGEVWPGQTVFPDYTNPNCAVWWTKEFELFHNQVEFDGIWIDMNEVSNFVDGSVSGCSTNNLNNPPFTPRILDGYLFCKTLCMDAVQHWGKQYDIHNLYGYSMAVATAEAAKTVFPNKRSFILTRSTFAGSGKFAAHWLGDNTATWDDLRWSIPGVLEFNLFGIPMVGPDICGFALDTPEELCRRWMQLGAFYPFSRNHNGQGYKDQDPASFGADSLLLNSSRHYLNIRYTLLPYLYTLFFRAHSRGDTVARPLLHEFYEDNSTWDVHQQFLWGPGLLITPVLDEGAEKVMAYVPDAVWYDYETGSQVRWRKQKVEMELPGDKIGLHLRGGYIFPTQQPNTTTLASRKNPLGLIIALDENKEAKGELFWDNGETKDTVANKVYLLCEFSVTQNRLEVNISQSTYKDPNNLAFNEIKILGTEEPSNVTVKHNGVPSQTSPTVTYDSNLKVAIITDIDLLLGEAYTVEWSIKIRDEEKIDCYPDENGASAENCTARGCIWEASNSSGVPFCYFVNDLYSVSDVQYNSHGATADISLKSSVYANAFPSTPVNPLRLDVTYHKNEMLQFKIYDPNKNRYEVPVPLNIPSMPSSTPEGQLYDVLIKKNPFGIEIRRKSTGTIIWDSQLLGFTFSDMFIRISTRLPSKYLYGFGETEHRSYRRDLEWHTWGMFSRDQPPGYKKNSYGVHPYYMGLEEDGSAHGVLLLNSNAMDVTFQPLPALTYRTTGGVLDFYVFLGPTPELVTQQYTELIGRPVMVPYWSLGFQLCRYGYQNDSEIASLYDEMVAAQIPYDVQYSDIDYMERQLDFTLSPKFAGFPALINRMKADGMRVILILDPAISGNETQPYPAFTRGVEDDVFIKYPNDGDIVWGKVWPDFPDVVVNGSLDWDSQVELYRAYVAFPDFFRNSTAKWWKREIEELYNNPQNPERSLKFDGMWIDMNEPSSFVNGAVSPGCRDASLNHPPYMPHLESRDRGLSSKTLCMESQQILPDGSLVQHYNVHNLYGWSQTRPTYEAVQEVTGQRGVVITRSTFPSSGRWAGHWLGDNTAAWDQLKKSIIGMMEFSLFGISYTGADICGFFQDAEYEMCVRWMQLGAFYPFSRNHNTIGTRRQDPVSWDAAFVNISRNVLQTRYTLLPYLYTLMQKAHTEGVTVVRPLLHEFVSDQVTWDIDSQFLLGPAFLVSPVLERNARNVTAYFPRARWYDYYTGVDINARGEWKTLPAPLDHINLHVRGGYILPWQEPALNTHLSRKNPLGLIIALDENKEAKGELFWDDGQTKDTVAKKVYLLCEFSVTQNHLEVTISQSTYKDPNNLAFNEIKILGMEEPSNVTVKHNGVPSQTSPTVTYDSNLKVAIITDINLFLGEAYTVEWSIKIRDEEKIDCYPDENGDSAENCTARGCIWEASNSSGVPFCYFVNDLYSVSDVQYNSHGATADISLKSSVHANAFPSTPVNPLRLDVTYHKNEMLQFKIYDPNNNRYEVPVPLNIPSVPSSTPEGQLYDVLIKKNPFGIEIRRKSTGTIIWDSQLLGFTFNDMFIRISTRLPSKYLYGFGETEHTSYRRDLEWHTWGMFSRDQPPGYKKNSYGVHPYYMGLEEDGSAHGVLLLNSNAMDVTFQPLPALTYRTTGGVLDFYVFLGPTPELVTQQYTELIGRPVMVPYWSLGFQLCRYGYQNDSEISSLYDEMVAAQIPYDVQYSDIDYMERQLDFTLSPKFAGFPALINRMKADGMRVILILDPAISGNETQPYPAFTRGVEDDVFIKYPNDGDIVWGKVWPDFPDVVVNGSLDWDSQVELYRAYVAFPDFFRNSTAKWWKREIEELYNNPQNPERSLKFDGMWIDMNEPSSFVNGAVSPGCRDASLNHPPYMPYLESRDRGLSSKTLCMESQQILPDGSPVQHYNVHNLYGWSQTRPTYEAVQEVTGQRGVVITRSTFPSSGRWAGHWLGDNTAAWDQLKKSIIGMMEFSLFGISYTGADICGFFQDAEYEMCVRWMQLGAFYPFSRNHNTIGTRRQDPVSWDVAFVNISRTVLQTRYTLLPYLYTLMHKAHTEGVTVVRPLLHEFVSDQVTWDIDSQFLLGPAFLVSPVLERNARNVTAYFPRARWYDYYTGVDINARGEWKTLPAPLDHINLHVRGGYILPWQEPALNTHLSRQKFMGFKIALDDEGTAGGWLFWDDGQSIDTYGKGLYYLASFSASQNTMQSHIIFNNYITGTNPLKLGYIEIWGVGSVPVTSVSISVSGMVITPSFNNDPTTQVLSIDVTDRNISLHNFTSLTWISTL

Row | Structure (SMILES) | IC50 [1] [µM] | inhibition [2] [%] | IC50 [3] [µM] | IC50 [4] [µM] | IC50 [5] [µM]
1 | COc1ccccc1S(=O)(=O)Nc1nnc(-c2ccc([N+](=O)[O-])cc2)s1 |  |  | 2.4 |  | 
2 | O=[N+]([O-])c1ccc(-c2nnc(NS(=O)(=O)c3ccc(Cl)c(Cl)c3)s2)cc1 |  |  |  | 5.5 | 
3 | O=S(=O)(NCCc1c[nH]c2ccccc12)c1cc(F)ccc1Cl |  |  |  |  | 1.6
4 | CC(=O)Nc1ccc(O)c(/N=N/c2ccc(S(=O)(=O)NC(=N)N)cc2)c1 | 96.5 | 91 |  |  | 
5 | CC(=O)Nc1ccc(O)c(/N=N/c2ccc(S(=O)(=O)Nc3nccs3)cc2)c1 | 44.1 | 93.4 |  |  | 

Continued by falling IC50 [1], values first:

Row | IC50 [1] [µM] | inhibition [2] [%] | IC50 [3] [µM] | IC50 [4] [µM] | IC50 [5] [µM] | Structure (SMILES)
6 | 19.1 | 94.2 |  |  |  | CC(=O)Nc1ccc(O)c(/N=N/c2ccc(S(=O)(=O)Nc3ccc(Cl)nn3)cc2)c1
7 | 18.3 | 92.6 |  |  |  | CC(=O)Nc1ccc(O)c(/N=N/c2ccc(S(=O)(=O)Nc3cc(C)on3)cc2)c1
8 | 11 | 93.6 |  |  |  | CC(=O)Nc1ccc(O)c(/N=N/c2ccc(S(N)(=O)=O)cc2)c1
9 | 5.13 | 94.1 |  |  |  | CC(=O)Nc1ccc(O)c(/N=N/c2ccc(S(=O)(=O)Nc3nc(C)cc(C)n3)cc2)c1
10 | 2.95 | 95.6 |  |  |  | CC(=O)Nc1ccc(O)c(/N=N/c2ccc(S(=O)(=O)Nc3noc(C)c3C)cc2)c1
11 | 1.39 | 95.7 |  |  |  | CC(=O)Nc1ccc(O)c(/N=N/c2ccc(S(=O)(=O)Nc3ncccn3)cc2)c1
12 | 1.24 | 95.8 |  |  |  | C[C@H]1O[C@H](O[C@H]2[C@H](O)[C@@H](O)[C@@H](O[C@H]3[C@H](O)[C@@H](O)C(O)O[C@@H]3CO)O[C@@H]2CO)[C@H](O)[C@@H](O)[C@@H]1N[C@H]1C=C(CO)[C@@H](O)[C@H](O)[C@H]1O (stereo partly specified) [ACARBOSE]
